Experimental findings from publication PMC11915372, “Identification of a Series Containing a Pentafluorophenyl Moiety That Targets Pks13 to Inhibit Growth of Mycobacterium tuberculosis” (ACS Infectious Diseases, 2025) are described below.

One data set has as its system HepG2 cells. The data set can be described thus: HepG2 cytotoxicity. Conditions: Homo sapiens.
The nature of data set [1]: physchem. The data set is classed as physicochemical.
The format of data set [2] is in vitro ADME, mouse.
Data set [3] in a line: physchem. The following applies: pH 7.4.
The format of data set [4] is in vitro ADME, mouse. The source holds these as a separate data set.
In the next data set the test system is M. tuberculosis (H37Rv). Kind of data set: microbe, parasite or virus in culture. The data set is classed as cell-based, Mycobacterium tuberculosis. The following applies: Mycobacterium tuberculosis, H37RV.
Where [5] appears, read: read-out: Wk2_7H9/DPPC/ casitone/ Tyloxapol MIC.
[6] abbreviates: read-out: Wk2_ 7H9/DPPC/ cholesterol/BSA/ Tyloxapol MIC.
The mark [7] stands for this setting: read-out: Wk2_7H9/glucose/ BSA/Tyloxapol MIC.
[8] abbreviates: read-out: Wk2_7H9/glucose/ casitone/ Tyloxapol MIC.
Where [9] appears, read: HepG2, read-out: HepG2 inhibitory concentration (IC50).
The mark [10] stands for this setting: pH 7.4, aqueous buffer, kinetic from dmso stock.

Values after ≈ are worked out from the molar mass of the structure shown. Like-named read-outs stand apart in the source and are kept apart here.

Description for HepG2 cells: Assays to establish HepG2 cytotoxicity, in vitro microsomal/hepatocyte metabolic stability, aqueous kinetic solubility, and in vivo pharmacokinetic profiles were all performed as previously described.[15],[35]−[37]

As usually defined, the chromatographic logD is lipophilicity estimated from chromatographic retention. A higher chromatographic logD goes with a more lipophilic compound. In the case of `CCOC(=O)c1nc(C)oc1NC(=O)c1c(F)c(F)cc(F)c1F` [Compound 28, CCOC(=O)c1nc(oc1NC(=O)c1c(c(cc(c1F)F)F)F)C], the IC50 in the data set on HepG2 cells (HepG2, read-out: Hs-HEPG IC50) is above 100 µM. For the same molecule, the solubility kinetic in the data set “physchem [1]” (kinetic solubility in water, read-out: Kin. Sol) turned out to be 163 µM (≈ 56.4 µg/mL); in the data set “physchem [1]” (pH 7.4, aqueous buffer, kinetic from dmso stock, pH7.4, read-out: Kinetic Solubility pH7.4), 163 µM (≈ 56.4 µg/mL). Further, in data set [2] (intrinsic clearance (Cli), mouse hepatocytes, Tables 1-4), the “Mouse Heps Cl” value is reported as 0.88 mLmin/g. Moreover, in data set [2] (supplement data table), the “Hepatocyte Cli” value was 0.9 mL/min/g. Further, the chromatographic logD in “physchem [3]” came to 1.7. In data set [4] (intrinsic clearance (Cli), CD1 mouse liver microsomes, Tables 1-4), the “Mouse micro Cl” value is recorded as below 0.5 mLmin/g. The “Microsomal Cli” value in data set [4] (supplement data table) is below 0.5 mL/min/g. For the same molecule, the MIC in the data set with M. tuberculosis (H37Rv) (read-out: H37Rv MIC A), in the data set with M. tuberculosis (H37Rv) (read-out: H37Rv MIC B), in the data set on M. tuberculosis (H37Rv) (setting [5]), in the data set on M. tuberculosis (H37Rv) (setting [6]), with M. tuberculosis (H37Rv) (setting [7]) and in the data set on M. tuberculosis (H37Rv) (setting [8]) was above 50 µM in each case.
`CCOC(=O)c1nc(C)oc1NCc1c(F)c(F)c(F)c(F)c1F` [Compound 29, CCOC(=O)c1nc(oc1NCc1c(c(c(c(c1F)F)F)F)F)C]: the IC50 in the data set on HepG2 cells (setting [9]) was above 100 µM. Also, the solubility kinetic in the data set “physchem [1]” (setting [10]) and in “physchem [1]” (read-out: Kin. Sol) was 23 µM (≈ 8.06 µg/mL) each time. In addition, the “Hepatocyte Cli” value in data set [2] (mouse) was above 50 mL/min/g. Further, in data set [2] (mouse, hepatocytes), the “Mouse Heps Cl” value is recorded as above 50 mLmin/g. For the same molecule, in “physchem [3]”, the chromatographic logD came to 3.2. Besides, the “Microsomal Cli” value in data set [4] (CD1, mouse) is recorded as 32 mL/min/g. Moreover, the “Mouse micro Cl” value in data set [4] (mouse, microsomes) came to 32 mLmin/g. Besides, the MIC in the data set on M. tuberculosis (H37Rv) (read-out: H37Rv MIC A), in the data set on M. tuberculosis (H37Rv) (read-out: H37Rv MIC B), in the data set with M. tuberculosis (H37Rv) (setting [5]), in the data set with M. tuberculosis (H37Rv) (setting [6]), in the data set with M. tuberculosis (H37Rv) (setting [7]) and in the data set with M. tuberculosis (H37Rv) (setting [8]) was above 50 µM in each case.
For `CCOC(=O)c1nc(C)oc1NS(=O)(=O)c1c(F)c(F)c(F)c(F)c1F` [Compound 30, CCOC(=O)c1nc(oc1NS(=O)(=O)c1c(c(c(c(c1F)F)F)F)F)C], the IC50 with HepG2 cells (setting [9]) is above 100 µM. Further, the solubility kinetic in “physchem [1]” (setting [10]) and in “physchem [1]” (read-out: Kin. Sol) was 171 µM (≈ 68.4 µg/mL) each time. Also, the “Hepatocyte Cli” value in data set [2] (mouse) was determined as 0.8 mL/min/g. Also, the “Mouse Heps Cl” value in data set [2] (mouse, hepatocytes) came out at 0.78 mLmin/g. Moreover, the chromatographic logD in the data set “physchem [3]” amounted to 1.4. The “Microsomal Cli” value in data set [4] (CD1, mouse) was 0.9 mL/min/g. Moreover, the “Mouse micro Cl” value in data set [4] (mouse, microsomes) was found to be 0.94 mLmin/g. The MIC with M. tuberculosis (H37Rv) (read-out: H37Rv MIC A), in the data set with M. tuberculosis (H37Rv) (read-out: H37Rv MIC B), in the data set on M. tuberculosis (H37Rv) (setting [5]), in the data set with M. tuberculosis (H37Rv) (setting [6]), with M. tuberculosis (H37Rv) (setting [7]) and with M. tuberculosis (H37Rv) (setting [8]) was above 50 µM each time.
In the case of `CCOC(=O)c1nc(C(C)C)oc1NC(=O)c1c(F)c(F)c(F)c(F)c1F` [Compound 31, CCOC(=O)c1nc(oc1NC(=O)c1c(c(c(c(c1F)F)F)F)F)C(C)C], in the data set on HepG2 cells (setting [9]), the IC50 was above 100 µM. In addition, the solubility kinetic in the data set “physchem [1]” (setting [10]) and in “physchem [1]” (read-out: Kin. Sol) was 195 µM (≈ 76.5 µg/mL) in each case. The “Hepatocyte Cli” value in data set [2] (mouse) was 13 mL/min/g. The “Mouse Heps Cl” value in data set [2] (mouse, hepatocytes) is 13 mL/min/g. This molecule also showed a chromatographic logD in the data set “physchem [3]” of 2.8. Moreover, in data set [4] (CD1, mouse), the “Microsomal Cli” value is on record as 3.3 mL/min/g. Further, the “Mouse micro Cl” value in data set [4] (mouse, microsomes) was 3.3 mL/min/g. Besides, the MIC in the data set on M. tuberculosis (H37Rv) (read-out: H37Rv MIC A) is 0.1 µM (≈ 0.0392 µg/mL); in the data set on M. tuberculosis (H37Rv) (read-out: H37Rv MIC B), 0.6 µM (≈ 0.235 µg/mL); in the data set with M. tuberculosis (H37Rv) (setting [5]), 0.1 µM (≈ 0.0392 µg/mL); in the data set on M. tuberculosis (H37Rv) (setting [6]) it was 0.6 µM (≈ 0.235 µg/mL); with M. tuberculosis (H37Rv) (setting [7]) it was 0.6 µM (≈ 0.235 µg/mL); in the data set on M. tuberculosis (H37Rv) (setting [8]), 0.15 µM (≈ 0.0588 µg/mL).
In the case of `CCOC(=O)c1nc(N(C)C)oc1NC(=O)c1c(F)c(F)c(F)c(F)c1F` [Compound 32, CCOC(=O)c1nc(oc1NC(=O)c1c(c(c(c(c1F)F)F)F)F)N(C)C], in the data set with HepG2 cells (setting [9]), the IC50 was above 100 µM. In addition, the solubility kinetic in the data set “physchem [1]” (setting [10]) and in “physchem [1]” (read-out: Kin. Sol) was 221 µM (≈ 86.9 µg/mL) throughout. For the same molecule, the “Hepatocyte Cli” value in data set [2] (mouse) is 22 mL/min/g. Also, the “Mouse Heps Cl” value in data set [2] (mouse, hepatocytes) worked out at 22 mL/min/g. The chromatographic logD in “physchem [3]” came to 2.4. Besides, the “Microsomal Cli” value in data set [4] (CD1, mouse) came out at 1.4 mL/min/g. Further, the “Mouse micro Cl” value in data set [4] (mouse, microsomes) is reported as 1.4 mL/min/g. Also, the MIC with M. tuberculosis (H37Rv) (read-out: H37Rv MIC A) was determined as 0.2 µM (≈ 0.0787 µg/mL); with M. tuberculosis (H37Rv) (read-out: H37Rv MIC B) it was 0.6 µM (≈ 0.236 µg/mL); in the data set with M. tuberculosis (H37Rv) (setting [5]), 0.2 µM (≈ 0.0787 µg/mL); in the data set with M. tuberculosis (H37Rv) (setting [6]), 0.6 µM (≈ 0.236 µg/mL); in the data set on M. tuberculosis (H37Rv) (setting [7]), 1.2 µM (≈ 0.472 µg/mL); with M. tuberculosis (H37Rv) (setting [8]) it was 0.3 µM (≈ 0.118 µg/mL).
For `CCOC(=O)c1nc(COC)oc1NC(=O)c1c(F)c(F)c(F)c(F)c1F` [Compound 33, CCOC(=O)c1nc(oc1NC(=O)c1c(c(c(c(c1F)F)F)F)F)COC], the IC50 in the data set on HepG2 cells (setting [9]) was above 100 µM. Besides, the solubility kinetic in the data set “physchem [1]” (setting [10]) and in “physchem [1]” (read-out: Kin. Sol) was 227 µM (≈ 89.5 µg/mL) in each case. Besides, the “Hepatocyte Cli” value in data set [2] (mouse) is on record as 7.5 mL/min/g. In data set [2] (mouse, hepatocytes), the “Mouse Heps Cl” value is listed as 7.5 mL/min/g. This molecule also had a chromatographic logD in the data set “physchem [3]” of 1.6. The “Microsomal Cli” value in data set [4] (CD1, mouse) was below 0.5 mL/min/g. The “Mouse micro Cl” value in data set [4] (mouse, microsomes) was below 0.5 mL/min/g. In addition, the MIC stood at 1.2 µM (≈ 0.473 µg/mL) in the data set on M. tuberculosis (H37Rv) (read-out: H37Rv MIC A); 2.3 µM (≈ 0.907 µg/mL) in the data set with M. tuberculosis (H37Rv) (read-out: H37Rv MIC B); 1.2 µM (≈ 0.473 µg/mL) with M. tuberculosis (H37Rv) (setting [5]); 2.3 µM (≈ 0.907 µg/mL) in the data set on M. tuberculosis (H37Rv) (setting [6]); 2.3 µM (≈ 0.907 µg/mL) in the data set with M. tuberculosis (H37Rv) (setting [7]); 1.2 µM (≈ 0.473 µg/mL) in the data set with M. tuberculosis (H37Rv) (setting [8]).
